Experimental findings from patent US7897619B2, “Heterocyclic modulators of PKB” (Amgen Inc., priority 2007, dated 2011) are described below.

The target in the test is PKBα (Homo sapiens, UniProt P31749). The experiment in a line: PKB kinase assay (P33-labeled ATP, synthetic peptide substrate, filter plate). The format is biochemical. The following applies: PKBα enzyme (full length or kinase domain with pleckstrin domain deleted). The source says: The kinase assay for evaluating PKB activity comprises active PKB enzymes, a PKB specific substrate, and P^33-labeled ATP. Two forms of PKBα enzymes were used, the full length PKBα and a kinase domain of PKBα with pleckstrin domain (amino acids 1-117) deleted. Both PKB enzymes were obtained from Upstate cell signaling solutions (Cat.# 14-276 and 14-341). The PKB substrate used is a synthetic peptide (ARKRERTYSFGHHA (SEQ ID NO: 1)) as described in Obata et al., J. Biol. Chem. 275 (46), 36108-36115 (2000). The phosphorylated substrate was captured by a phosphocellulose membrane filter plate (MILLIPORE) and measured by a Wallac Microbeta liquid scintillation counter (Perkin Elmer). Table 1 provides the IC50 values obtained for each of the examples with respect to PKBα.
PKBα, sequence (P31749 118-480 limits assumed): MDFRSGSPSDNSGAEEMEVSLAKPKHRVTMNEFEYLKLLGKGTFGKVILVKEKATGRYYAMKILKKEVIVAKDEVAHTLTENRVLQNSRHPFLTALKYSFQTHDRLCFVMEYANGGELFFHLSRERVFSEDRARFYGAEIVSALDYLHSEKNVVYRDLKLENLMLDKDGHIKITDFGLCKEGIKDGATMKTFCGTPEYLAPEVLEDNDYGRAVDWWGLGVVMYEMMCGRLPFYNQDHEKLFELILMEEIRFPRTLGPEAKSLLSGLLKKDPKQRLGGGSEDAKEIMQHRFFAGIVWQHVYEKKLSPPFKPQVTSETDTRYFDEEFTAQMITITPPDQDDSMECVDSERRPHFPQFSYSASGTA

Molecules are shown by their SMILES. Counter-ions that a name gives are not always drawn.

As usually defined, the IC50 is the concentration that inhibits the measured activity by half. A higher IC50 goes with a need for much substance. `N[C@H](CCn1cc(-c2ccc3[nH]ncc3c2)nn1)Cc1ccccc1` [Example 39, (2S)-4-(4-(1H-Indazol-5-yl)-1H-1,2,3-triazol-1-yl)-1-phenylbutan-2-amine] came in with an IC50 of 50 to 1000 nM.

`Cc1n[nH]c2ccc(-c3cn(CC[C@@H](N)Cc4ccccc4)nn3)cc12` [Example 40, (2S)-4-(4-(3-Methyl-1H-indazol-5-yl)-1H-1,2,3-triazol-1-yl)-1-phenylbutan-2-amine] showed an IC50 of 1000 to 10000 nM.

Turning to `N[C@H](CNc1cnc(-c2ccc3cnccc3c2)s1)Cc1ccc(C(F)(F)F)cc1` [Example 41, N-((S)-2-Amino-3-(4-(trifluoromethyl)phenyl)propyl)-2-(isoquinolin-6-yl)thiazol-5-amine trifluoroacetate], the IC50 lay in the range of 50 to 1000 nM.

Molecule `N[C@H](CNc1cnn(-c2ccc3cnccc3c2)c1)Cc1ccc(C(F)(F)F)cc1` [Example 42, N-((S)-2-Amino-3-(4-(trifluoromethyl)phenyl)propyl)-1-(isoquinolin-6-yl)-1H-pyrazol-4-amine] showed an IC50 of 50 to 1000 nM.

On to `N[C@H](CNc1nc(-c2ccc3cnccc3c2)ns1)Cc1ccc(C(F)(F)F)cc1` [Example 43, N-((S)-2-Amino-3-(4-(trifluoromethyl)phenyl)propyl)-3-(isoquinolin-6-yl)-1,2,4-thiadiazol-5-amine], for which the IC50 lay in the range of 50 to 1000 nM.

Regarding `N[C@H](CNc1nc(-c2ccc3c(c2)CC(=O)N3)ns1)Cc1ccc(C(F)(F)F)cc1` [Example 44, 5-(5-((S)-2-Amino-3-(4-(trifluoromethyl)phenyl)propylamino)-1,2,4-thiadiazol-3-yl)indolin-2-one], the IC50 was 1000 to 10000 nM.

`N[C@H](CNc1nc(-c2ccc3[nH]ncc3c2)ns1)Cc1ccc(C(F)(F)F)cc1` [Example 45, N-((S)-2-Amino-3-(4-(trifluoromethyl)phenyl)propyl)-3-(1H-indazol-5-yl)-1,2,4-thiadiazol-5-amine] displayed an IC50 of 1000 to 10000 nM.

`N[C@H](CNc1cnn(-c2ccc3cnccc3c2)c1)Cc1ccc(Cl)cc1` [Example 46, N-((S)-2-Amino-3-(4-chlorophenyl)propyl)-1-(isoquinolin-6-yl)-1H-pyrazol-4-amine] returned an IC50 of 50 to 1000 nM.

In turn, `N[C@H](CNc1nsc(-c2ccc3c(c2)CC(=O)N3)n1)Cc1ccc(C(F)(F)F)cc1` [Example 47, 5-(3-((S)-2-Amino-3-(4-(trifluoromethyl)phenyl)propylamino)-1,2,4-thiadiazol-5-yl)indolin-2-one] yielded an IC50 of 50 to 1000 nM.

`N[C@H](CCc1nc(-c2ccc3c(c2)CC(=O)N3)no1)Cc1ccc(C(F)(F)F)cc1` [Example 48, 5-(5-((R)-3-Amino-4-(4-(trifluoromethyl)phenyl)butyl)-1,2,4-oxadiazol-3-yl)indolin-2-one] had an IC50 of 50 to 1000 nM.

For `N[C@@H](Cc1ccc(C(F)(F)F)cc1)c1nc(-c2ccc3c(c2)CC(=O)N3)no1` [Example 49, 5-(5-((S)-1-Amino-2-(4-(trifluoromethyl)phenyl)ethyl)-1,2,4-oxadiazol-3-yl)indolin-2-one], the IC50 was in the range of 1000 to 10000 nM.

With `N[C@H](CCn1cc(-c2ccc3[nH]c(=O)oc3c2)cn1)Cc1ccc(Cl)cc1` [Example 50, 6-(1-((S)-3-Amino-4-(4-chlorophenyl)butyl)-1H-pyrazol-4-yl)benzo[d]oxazol-2(3H)-one], the concentration for half-maximal inhibition (IC50) is < 50 nM.

Consider `N[C@H](CCn1cc(-c2ccc3c(c2)CC(=O)N3)cn1)Cc1ccc(Cl)cc1` [Example 51, 5-(1-((S)-3-Amino-4-(4-chlorophenyl)butyl)-1H-pyrazol-4-yl)indolin-2-one], for which the IC50 was < 50 nM.

As to `N[C@H](CCn1cc(-c2ccc3[nH]ncc3c2)cn1)Cc1ccc(Cl)cc1` [Example 52, (2S)-4-(4-(1H-Indazol-5-yl)-1H-pyrazol-1-yl)-1-(4-chlorophenyl)butan-2-amine], the IC50 is < 50 nM.

`Cc1n[nH]c2ccc(-c3cnn(CC[C@@H](N)Cc4ccc(Cl)cc4)c3)cc12` [Example 53, (2S)-1-(4-Chlorophenyl)-4-(4-(3-methyl-1H-indazol-5-yl)-1H-pyrazol-1-yl)butan-2-amine]: the IC50 was < 50 nM.

On to `Cn1c(=O)[nH]c2ccc(-c3cnn(CC[C@@H](N)Cc4ccc(Cl)cc4)c3)cc21` [Example 54, 6-(1-((S)-3-Amino-4-(4-chlorophenyl)butyl)-1H-pyrazol-4-yl)-1-methyl-1H-benzo[d]imidazol-2(3H)-one], for which the half-maximal inhibitory concentration (IC50) lay within 50 to 1000 nM.

For `N[C@H](CCn1cc(-c2ccc3cnc(F)cc3c2)cn1)Cc1ccc(Cl)cc1` [Example 55, (2S)-1-(4-Chlorophenyl)-4-(4-(3-fluoroisoquinolin-6-yl)-1H-pyrazol-1-yl)butan-2-amine], the half-maximal inhibitory concentration (IC50) is < 50 nM.

For `N[C@H](CCn1cc(-c2ccc3cnccc3c2)cn1)Cc1ccc(Cl)cc1` [Example 56, (2S)-1-(4-Chlorophenyl)-4-(4-(isoquinolin-6-yl)-1H-pyrazol-1-yl)butan-2-amine], the IC50 is < 50 nM.

Turning to `N[C@H](CCn1cc(-c2ccc3cnccc3c2)cn1)Cc1ccc(C(F)(F)F)cc1` [Example 57, (2S)-4-(4-(Isoquinolin-6-yl)-1H-pyrazol-1-yl)-1-(4-(trifluoromethyl)phenyl)butan-2-amine], the IC50 is < 50 nM.

As for `Cc1ccc(C[C@H](N)CCn2cc(-c3ccc4cnccc4c3)cn2)cc1` [Example 58, (2S)-4-(4-(Isoquinolin-6-yl)-1H-pyrazol-1-yl)-1-p-tolylbutan-2-amine], the IC50 was 50 to 1000 nM.

`N[C@H](CCn1cc(-c2ccc3cnccc3c2)cn1)Cc1cccc(Cl)c1` [Example 59, (2S)-1-(3-Chlorophenyl)-4-(4-(isoquinolin-6-yl)-1H-pyrazol-1-yl)butan-2-amine] showed an IC50 of 50 to 1000 nM.

`N[C@H](CCn1cc(-c2ccc3cnccc3c2)cn1)Cc1ccc(Cl)c(Cl)c1` [Example 60, (2S)-1-(3,4-Dichlorophenyl)-4-(4-(isoquinolin-6-yl)-1H-pyrazol-1-yl)butan-2-amine] returned an IC50 of 50 to 1000 nM.

`N[C@H](CCn1cc(-c2ccc3cnccc3c2)cn1)Cc1ccc(F)c(F)c1` [Example 61, (2S)-1-(3,4-Difluorophenyl)-4-(4-(isoquinolin-6-yl)-1H-pyrazol-1-yl)butan-2-amine] came in with an IC50 of 50 to 1000 nM.

`N[C@H](CCn1cc(-c2ccc3cnccc3c2)cn1)Cc1ccc(F)cc1` [Example 62, (2S)-1-(4-Fluorophenyl)-4-(4-(isoquinolin-6-yl)-1H-pyrazol-1-yl)butan-2-amine]: the IC50 lay within 50 to 1000 nM.

As for `N[C@H](CCn1cc(-c2ccc3cnccc3c2)cn1)Cc1ccc(Cl)cc1Cl` [Example 63, (2S)-1-(2,4-Dichlorophenyl)-4-(4-(isoquinolin-6-yl)-1H-pyrazol-1-yl)butan-2-amine], the IC50 was in the range of 50 to 1000 nM.

Molecule `N[C@H](CCn1cc(-c2ccc3cnccc3c2)cn1)Cc1ccccc1` [Example 64, (2S)-4-(4-(Isoquinolin-6-yl)-1H-pyrazol-1-yl)-1-phenylbutan-2-amine] returned an IC50 of 50 to 1000 nM.

`N[C@@H](Cc1ccc(C(F)(F)F)cc1)Cn1cc(-c2ccc3cnccc3c2)cn1` [Example 65, (2S)-1-(4-(Isoquinolin-6-yl)-1H-pyrazol-1-yl)-3-(4-(trifluoromethyl)phenyl)-propan-2-amine] showed an IC50 of 50 to 1000 nM.

`N[C@H](CCc1nnc(-c2ccc3cnccc3c2)o1)Cc1ccc(C(F)(F)F)cc1` [Example 66, (2R)-4-(5-(Isoquinolin-6-yl)-1,3,4-oxadiazol-2-yl)-1-(4-(trifluoromethyl)phenyl)butan-2-amine] displayed an IC50 of 50 to 1000 nM.

In turn, `N[C@H](CCc1cn(-c2ccc3[nH]ncc3c2)nn1)Cc1ccc(C(F)(F)F)nc1` [Example 67, (2R)-4-(1-(1H-Indazol-5-yl)-1H-1,2,3-triazol-4-yl)-1-(6-(trifluoromethyl)pyridin-3-yl)butan-2-amine bistrifluoroacetate] came in with an IC50 of 50 to 1000 nM.
